Results from PubChem BioAssay (NCI).
“And” between values parts separate entries of the source, which are not always exact repeats. Equal entries are not always repeated.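 Tested at 5 concentrations; 48 h exposure; 96-well plates; endpoints linearly interpolated, else capped at highest concentration. Abbreviation: GI50, concentration required for 50% inhibition of growth. Definition used: TGI = concentration required for complete inhibition of growth.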

Tested on: MDA-MB-468 breast
Assay: DTP human tumour cell line panel, 48 h

First: O=C(N/N=C/c1ccc(O)cc1O)c1ccc(Nc2ccnc(C(F)(F)F)c2)cc1
Second: O=C(O)c1ccc(NS(=O)(=O)c2cccc3cccnc23)cc1
The GI50 of the first is lower: 15.2 µM for the first, greater than 100 µM for the second.

Going from `Cc1nn2c(/C=C3/C(=O)Nc4ccc(Cl)cc43)c(-c3ccccc3)nc2s1` to `Cc1cc2c(C(N)=O)cccc2n1-c1nc2c(c(NCc3ccccc3)n1)CCCN2`, the GI50 falls from 3.47 µM to 0.223 µM (16-fold).

Going from `CC1(C)N=C(N)N=C(N)N1c1cccc(CCCCc2ccc(S(=O)(=O)F)cc2Cl)c1` to `CN(C)CC#Cc1cccc(C(=O)c2cnn(-c3ccc(F)cc3)c2N)c1`, the GI50 rises from 2.13 µM to 13.3 µM (6.2-fold).

First: O=C1CNc2cc(N3CCN(c4cccc(C(F)(F)F)c4)CC3)ccc2N1
Second: O=C1Nc2cc(OC(F)(F)F)ccc2Oc2ccc(-c3ccnc(N4CCNCC4)c3)cc21
The GI50 of the first is 12-fold higher: 4.92 µM for the first, 0.394 µM for the second.

First: COc1ccc(C(=O)c2cc(OC)c(OC)c(OC)c2)cc1O
Second: COc1ccc(C(=O)/C=C/c2cc(C(=O)c3cc(OC)c(OC)c(OC)c3)ccc2OC)cc1
The GI50 of the first is 13-fold lower: 0.239 µM for the first, 3.03 µM for the second.

Compared with `CO/N=C1/NC(=O)/C(=C/c2ccc3ncccc3c2)S1`, `COc1ccc(/C=C(\C#N)c2cc(OC)c3c(c2)OCO3)cc1` is 280-fold lower in GI50: 4.91 µM for the first, 0.0173 µM for the second.

First: COc1cc(-c2cc(-c3nc4ccccc4[nH]3)[nH]n2)cc(OC)c1OC
Second: O=[N+]([O-])c1cc(Br)cc2c1[nH]c1ccc(Br)cc12
The GI50 of the first is 8-fold lower: 0.935 µM for the first, 7.52 µM for the second.

Going from `O=C1C(Cl)=C(N2CCOCC2)C(=O)c2ccccc21` to `Cc1c(Cl)cccc1NC(=O)c1sc2nc3c(cc2c1N)CCCCCC3`, the GI50 falls from 1.44 µM to 0.13 µM (11-fold).

First: O=C(CNC(=O)c1cccc2ccccc12)Nc1ccccc1Oc1ccccc1
Second: CCc1nc2ccc(Cc3ccc(C(=O)NO)cc3)cc2c(=O)n1CCc1ccccc1
The GI50 of the first is 2.3-fold lower: 0.325 µM for the first, 0.74 µM for the second.

First: C#CC[C@H](c1nc2cc(Cl)ccc2c(=O)n1Nc1ccccc1)N(CCCN)C(=O)c1cccc(Cl)c1F
Second: Cn1c2ccccc2c2nnc(N/N=C/c3ccccn3)nc21
The GI50 of the first is 7-fold lower: 0.0421 µM for the first, 0.293 µM for the second.

`COC[C@H]1OC(=O)c2coc3c2[C@@]1(C)C1=C(C3=O)[C@@H]2CCC(=O)[C@@]2(C)C[C@H]1OC(C)=O` and `CSc1ccc(/C(=N/N=C(N)N)c2ccc(F)cc2)cc1` are within 1.5-fold of each other in GI50: 0.421 µM for the first, 0.398 µM for the second.

`O=C(N/N=C/c1ccc(O)cc1O)c1ccc(Nc2ccnc(C(F)(F)F)c2)cc1` and `O=C(O)c1ccc(NS(=O)(=O)c2cccc3cccnc23)cc1` cannot be ordered by TGI: greater than 100 µM for the first, greater than 100 µM for the second.

Going from `Cc1nn2c(/C=C3/C(=O)Nc4ccc(Cl)cc43)c(-c3ccccc3)nc2s1` to `Cc1cc2c(C(N)=O)cccc2n1-c1nc2c(c(NCc3ccccc3)n1)CCCN2`, the TGI falls from 14.7 µM to 0.477 µM (31-fold).

Going from `CC1(C)N=C(N)N=C(N)N1c1cccc(CCCCc2ccc(S(=O)(=O)F)cc2Cl)c1` to `CN(C)CC#Cc1cccc(C(=O)c2cnn(-c3ccc(F)cc3)c2N)c1`, the TGI rises from 18.8 µM to greater than 25 µM.

Going from `O=C1CNc2cc(N3CCN(c4cccc(C(F)(F)F)c4)CC3)ccc2N1` to `O=C1Nc2cc(OC(F)(F)F)ccc2Oc2ccc(-c3ccnc(N4CCNCC4)c3)cc21`, the TGI falls from 43.6 µM to 1.46 µM (30-fold).

Going from `COc1ccc(C(=O)c2cc(OC)c(OC)c(OC)c2)cc1O` to `COc1ccc(C(=O)/C=C/c2cc(C(=O)c3cc(OC)c(OC)c(OC)c3)ccc2OC)cc1`, the TGI rises from 0.779 µM to greater than 100 µM.

Compared with `CO/N=C1/NC(=O)/C(=C/c2ccc3ncccc3c2)S1`, `COc1ccc(/C=C(\C#N)c2cc(OC)c3c(c2)OCO3)cc1` is lower in TGI: greater than 25 µM for the first, 0.15 µM for the second.

Compared with `COc1cc(-c2cc(-c3nc4ccccc4[nH]3)[nH]n2)cc(OC)c1OC`, `O=[N+]([O-])c1cc(Br)cc2c1[nH]c1ccc(Br)cc12` is 4.8-fold higher in TGI: 16.6 µM for the first, 79.7 µM for the second.

Compared with `O=C1C(Cl)=C(N2CCOCC2)C(=O)c2ccccc21`, `Cc1c(Cl)cccc1NC(=O)c1sc2nc3c(cc2c1N)CCCCCC3` is 6.8-fold higher in TGI: 2.94 µM for the first, 19.9 µM for the second.

Compared with `O=C(CNC(=O)c1cccc2ccccc12)Nc1ccccc1Oc1ccccc1`, `CCc1nc2ccc(Cc3ccc(C(=O)NO)cc3)cc2c(=O)n1CCc1ccccc1` is 2-fold lower in TGI: 5.9 µM for the first, 2.97 µM for the second.

First: C#CC[C@H](c1nc2cc(Cl)ccc2c(=O)n1Nc1ccccc1)N(CCCN)C(=O)c1cccc(Cl)c1F
Second: CSc1ccc(/C(=N/N=C(N)N)c2ccc(F)cc2)cc1
The TGI of the first is 2.8-fold lower: 0.755 µM for the first, 2.13 µM for the second.

For `COC[C@H]1OC(=O)c2coc3c2[C@@]1(C)C1=C(C3=O)[C@@H]2CCC(=O)[C@@]2(C)C[C@H]1OC(C)=O`, the TGI was 4.62 µM.

With `CCN(CC)CCCC(C)Nc1cnc(C(=O)Nc2cc(F)cc3cccnc23)cn1` (stereo unspecified) the GI50 was 2.83 µM and 0.327 µM.
`Cc1c(CN2CCC(Nc3ncnc4sc(CC(F)(F)F)cc34)CC2)ccc2c1cc(C#N)n2Cc1cn[nH]c1` was tested, and the GI50 was 0.842 µM and 0.781 µM.

For `Cc1c(CN2CCC(Nc3ncnc4sc(CC(F)(F)F)cc34)CC2)ccc2c1cc(C#N)n2Cc1cn[nH]c1`, the TGI was 3.82 µM and 6.25 µM.
